SMILES strings stand for the structures. A value given as a limit tells only on which side of the number the result lay.

The text below walks through data of ChEMBL document CHEMBL1149187, “Design, synthesis, and biological activity of 4-[(4-cyano-2-arylbenzyloxy)-(3-methyl-3H-imidazol-4-yl)methyl]benzonitriles as potent and selective farnesyltransferase inhibitors” (J Med Chem, 2004).

For series [1], the target named is T1, Protein farnesyltransferase (Homo sapiens, UniProt P49354+P49356). Briefly: Effective concentration required for inhibition of farnesylation of Ras protein in NIH3T3 cells. It is filed as functional, cell-based, Mus musculus.
A short description of series [2]: Area under plasma concentration time curve in dog upon oral administration.
A short description of series [3]: Half-life in dog upon oral administration. The note with it: in vivo.
The nature of series [4]: in vivo. The note with it: dog, plasma.
For series [5], the target named is T1, Protein farnesyltransferase. Description: (§1) Inhibition of Farnesyltransferase. In kind it is protein-complex assay.
The target is the same in series [6]. The series is described as §1. In kind it is protein-complex assay. The source holds these as a separate data set.
For series [7], the target named is Geranylgeranyl transferase type I (Homo sapiens, UniProt P49354+P53609). Description: Inhibition of Geranylgeranyl transferase type I. It is filed as protein-complex assay.
Series [8] in a line: in vivo. The following applies: dog.
For series [9], the species on record is Canis familiaris. Briefly: Plasma clearance in dog; Unable to calculate. It is filed as ADME, organism-based, Canis lupus familiaris. The note with it: in vivo.
In series [10] the test system is Canis familiaris. Briefly: Half-life in dog upon oral administration; Unable to calculate. It is filed as ADME, organism-based, Canis lupus familiaris. The note with it: in vivo.

The term EC50 denotes the concentration giving half of the maximal effect. Lower therefore signals greater potency. In turn, `Cc1ncc(C(OCc2ccc(C#N)cc2-c2cccc(Cl)c2)c2ccc(C#N)cc2)n1C` (stereo not given) gave a concentration for a half-maximal effect (EC50) in series [1] of 154 nM.
The term AUC denotes the area under the concentration-time curve, a measure of exposure. Read a high AUC as more exposure. By half-life is commonly meant the time in which the quantity being followed falls by half. Read a high half-life as slow loss. As usually defined, the clearance is a measure of how efficiently the substance is removed, as volume per time. Read a high clearance as efficient removal. As a reminder, the IC50 is the midpoint of a concentration-inhibition curve. A lower IC50 goes with inhibition by little substance. In the case of `CCOc1cccc(-c2cc(C#N)ccc2COC(c2ccc(C#N)cc2)c2cncn2C)c1` (stereo not given), the AUC in series [2] is 1130 ng·h/mL. In series [1], this compound returned a concentration for a half-maximal effect (EC50) of 0.19 nM. Moreover, the half-life in series [3] is 2.2 h. Moreover, the clearance in the series “in vivo [4]” is 16.7 mL/min/kg. In addition, the 50% inhibitory concentration (IC50) in series [5] amounted to 0.69 nM.
As to `Cn1cncc1C(OCc1ccc(C#N)cc1)c1ccc(C#N)c(-c2cccc3ccccc23)c1` (stereo not given), the results for the IC50 in [6] and in [7] were 0.3 nM and 18 nM, respectively.
In the case of `Cn1cncc1C(OCc1ccc(C#N)cc1C(=O)Nc1cccc(Cl)c1)c1ccc(C#N)cc1` (stereo not given), the EC50 in series [1] was 3.5 nM.
Regarding `Cn1cncc1C(OCc1ccc(C#N)cc1-c1ccc2c(c1)OC(F)(F)O2)c1ccc(C#N)cc1` (stereo not given), the AUC in series [2] came out at 2760 ng·h/mL. This compound had a 50% effective concentration (EC50) in [1] of 9.1 nM. The half-life in series [3] is 1.3 h. The compound further gave a clearance in the series “in vivo [4]” of 5.17 mL/min/kg.
In series [1], `CCOc1cccc(-c2cc(Cl)ccc2COC(c2ccc(C#N)cc2)c2cncn2C)c1` (stereo not given) showed a 50% effective concentration (EC50) of 4.6 nM.
As to `COc1cccc(-c2cc(Cl)ccc2COC(c2ccc(C#N)cc2)c2cncn2C)c1` (stereo not given), the response in [1] was half-maximal at 100 nM (EC50).
On the same count and under the same terms, the result for `Cn1cncc1C(OCc1ccc(C#N)cc1NCc1cc(F)cc(F)c1)c1ccc(C#N)cc1` (stereo not given) reads 150 nM.
As usually defined, the bioavailability is the share of a dose that reaches the circulation, judged against a reference dose that is usually intravenous. A lower bioavailability goes with little systemic uptake. Compound `Cc1ncc(C(OCc2ccc(C#N)cc2-c2ccc3c(c2)OCO3)c2ccc(C#N)cc2)n1C` (stereo not given) returned an AUC in series [2] of 100 ng·h/mL. Further, in series [1], the EC50 is 9.8 nM. This compound also had a half-life in series [3] of 0.9 h. This compound also showed a bioavailability in the series “in vivo [8]” of 15.2%. Moreover, the clearance in “in vivo [4]” is 31.2 mL/min/kg.
`COc1ccc(-c2cc(C#N)ccc2COC(c2ccc(C#N)cc2)c2cncn2C)cc1` (stereo not given) registered an area under the curve (AUC) in series [2] of 760 ng·h/mL. In [1], this compound yielded a concentration for a half-maximal effect (EC50) of 7 nM. Besides, the half-life in series [3] is 3.6 h. Also, in the series “in vivo [4]”, the clearance is 12.2 mL/min/kg.
The compound `Cn1cncc1C(OCc1ccc(C#N)cc1-c1cccc(Cl)c1)c1ccc(C#N)cc1F` (stereo not given) had an EC50 in series [1] of 3.3 nM.
In the case of `Cn1cncc1C(OCc1ccc(C#N)cn1)c1ccc(C#N)c(-c2cccc3ccccc23)c1` (stereo not given), the EC50 in series [1] is 8 nM. The concentration for half-maximal inhibition (IC50) amounted to 0.4 nM in series [6] and 24 nM in series [7].
On to `Cn1cncc1C(OCc1ccc(C#N)cc1C(=O)Nc1ccccc1)c1ccc(C#N)cc1` (stereo not given), for which the AUC in series [2] stood at 5720 ng·h/mL. Moreover, in [1], the 50% effective concentration (EC50) was 12 nM. The half-life in series [3] was 18.4 h. The compound also returned a bioavailability in the series “in vivo [8]” of 96%. Besides, the clearance in “in vivo [4]” was 3.17 mL/min/kg.
As to `CCOc1ccc(-c2cc(C#N)ccc2COC(c2ccc(C#N)cc2)c2cncn2C)cc1` (stereo not given), a half-maximal effect in series [1] (EC50) was put at 13 nM.
Turning to `Cn1cncc1C(OCc1ccc(C#N)cc1-c1cccc2cccnc12)c1ccc(C#N)cc1` (stereo not given), the midpoint of the response in series [1], the EC50, lay at 15 nM.
Consider `Cn1cncc1C(OCc1ccc(C#N)cc1NS(=O)(=O)c1cccc2ccccc12)c1ccc(C#N)cc1` (stereo not given), for which, in series [1], the EC50 is more than 100 nM.
Same read-out and setting: the result for `Cn1cncc1C(OCc1ccc(C#N)cc1-c1cccc(Cl)c1)c1ccc(C(F)(F)F)cc1` (stereo not given) reads more than 100 nM; that for `COc1cccc(-c2cc(C#N)ccc2COC(c2ccc(C#N)c(Cl)c2)c2cncn2C)c1` (stereo not given), 130 nM.
For the compound `COc1cccc(-c2cc(N)ccc2COC(c2ccc(C#N)cc2)c2cncn2C)c1` (stereo not given), the concentration for a half-maximal effect (EC50) in series [1] was more than 100 nM.
As for `Cn1cncc1C(OCc1ccc(C#N)cc1-c1ccc2c(c1)OCO2)c1ccc(C#N)cc1` (stereo not given), the AUC in series [2] turned out to be 3660 ng·h/mL. Moreover, the concentration giving a half-maximal response (EC50) in series [1] is less than 1 nM. Further, in [3], the half-life is 2.7 h. The clearance in the series “in vivo [4]” is 10 mL/min/kg.
In series [1], `Cc1ccc(-c2cc(C#N)ccc2COC(c2ccc(C#N)cc2)c2cncn2C)cc1` (stereo not given) displayed an EC50 of more than 100 nM.
As to `COc1cccc(-c2cc(C=O)ccc2COC(c2ccc(C#N)cc2)c2cncn2C)c1` (stereo not given), in series [1], the EC50 is more than 100 nM.
The same measure, in the same setting: the result for `COc1cccc(-c2cc(C#N)ccc2COC(c2ccc(Cl)cc2)c2cncn2C)c1` (stereo not given) reads 17.7 nM.
For `Cn1cncc1C(OCc1ccc(C#N)cc1-c1cccc(Cl)c1)c1ccc(C#N)cc1` (stereo not given), the AUC in [2] amounted to 9890 ng·h/mL. For the same compound, the EC50 in [1] came to 5.2 nM. In [3], this compound had a half-life of 4.7 h. Moreover, in “in vivo [4]”, the clearance was 6.67 mL/min/kg.
As to `Cn1cncc1C(OCc1ccc(Cl)cc1-c1ccc(Cl)cc1)c1ccc(C#N)cc1` (stereo not given), in series [1], the concentration for a half-maximal effect (EC50) stood at 525 nM.
Same read-out and setting: the result for `COc1cccc(-c2cc([N+](=O)[O-])ccc2COC(c2ccc(C#N)cc2)c2cncn2C)c1` (stereo not given) reads 0.81 nM.
In the case of `Cn1cncc1C(OCc1ccc(Cl)cc1-c1ccccc1Cl)c1ccc(C#N)cc1` (stereo not given), in [2], the exposure (AUC) turned out to be 9850 ng·h/mL. Moreover, the EC50 in [1] is more than 1000 nM. This compound showed a bioavailability in “in vivo [8]” of 65%. Also, the Clp result in the series filed under Canis familiaris [9] is “Unable to calculate”. The T1/2 result in the series with Canis familiaris [10] was “Unable to calculate”.
Turning to `COC(=O)c1ccc(COC(c2ccc(C#N)cc2)c2cncn2C)c(-c2cccc(OC)c2)c1` (stereo not given), the EC50 in series [1] is more than 100 nM.
For the compound `COCc1cccc(-c2cc(C#N)ccc2COC(c2ccc(C#N)cc2)c2cncn2C)c1` (stereo not given), the exposure (AUC) in series [2] came to 260 ng·h/mL. In [1], this compound returned a concentration for a half-maximal effect (EC50) of 1 nM. In series [3], this compound gave a half-life of 2.2 h. Further, the clearance in “in vivo [4]” is 8.5 mL/min/kg.
Consider `Cn1cncc1C(OCc1ccc(C#N)cc1-c1cccc2ccccc12)c1ccc(C#N)cc1` (stereo not given), for which a half-maximal effect in [1] (EC50) was put at 14 nM.
In the case of `Cc1ccc(S(=O)(=O)Nc2cc(C#N)ccc2COC(c2ccc(C#N)cc2)c2cncn2C)cc1` (stereo not given), the EC50 in series [1] is 13 nM.
In series [1], `Cn1cncc1C(OCc1ccc(C#N)cc1NS(=O)(=O)c1cccs1)c1ccc(C#N)cc1` (stereo not given) came in with an EC50 of more than 100 nM.
As for `N#Cc1ccc(C(OCc2ccc(C#N)cc2-c2ccc3c(c2)OCO3)c2cnccc2Cl)cc1` (stereo not given), the EC50 in [1] is more than 100 nM.
`Cn1cncc1C(OCc1ccc(Cl)cc1-c1cccc(Cl)c1)c1ccc(C#N)cc1` (stereo not given): the concentration giving a half-maximal response (EC50) in series [1] stood at 390 nM.
The compound `COc1cccc(-c2cc(NS(C)(=O)=O)ccc2COC(c2ccc(C#N)cc2)c2cncn2C)c1` (stereo not given) displayed an EC50 in series [1] of more than 100 nM.
For the compound `COCC(=O)Nc1ccc(COC(c2ccc(C#N)cc2)c2cncn2C)c(-c2cccc(OC)c2)c1` (stereo not given), the 50% effective concentration (EC50) in series [1] is more than 100 nM.
In turn, `Cn1cncc1C(OCc1ccc(C#N)cc1-c1cccc(Cl)c1)c1ccc(C#N)c(F)c1` (stereo not given) returned an area under the curve (AUC) in [2] of 1580 ng·h/mL. In addition, the EC50 in series [1] is 36 nM. The half-life in series [3] was 8.7 h. Besides, the bioavailability in “in vivo [8]” was 71%. Also, the clearance in the series “in vivo [4]” was 8 mL/min/kg.
Turning to `Cn1cncc1C(OCc1ccc(C#N)cc1-c1ccc(F)c(F)c1)c1ccc(C#N)cc1` (stereo not given), the response in [1] was half-maximal at 96 nM (EC50).
`Cn1cncc1C(OCc1ccc(C#N)cc1-c1ccc(OC(F)(F)F)cc1)c1ccc(C#N)cc1` (stereo not given) returned an AUC in series [2] of 1530 ng·h/mL. The compound also returned an EC50 in [1] of 5.1 nM. This compound also showed a half-life in series [3] of 6.7 h. Further, the clearance in the series “in vivo [4]” is 7.33 mL/min/kg.
